The subject of assay [1] is LS174T human colon carcinoma xenografts. Put plainly: Growth inhibition of established LS174T human colon carcinoma xenografts. In kind it is in vivo, athymic nude mice. Particulars: Day 18 of separate 25-day study; high sunitinib dose 50 mg/kg daily, alone or with B20-4.1. The method, then: (§1) Volume was calculated using the formula:
(§2) Tumor Volume(mm^3)=(W2×l)/2
(§3) Tumors were measured twice weekly using calipers. […] Treatment outcome was based on tumor growth inhibition (TGI).
(§4) Animals were monitored for regression responses.
On the technique in general: Xenograft models place foreign cells or tissue in a host animal.

Assay [2] deals with 786-O renal cell carcinoma (RCC) xenografts. The experiment in a line: Growth inhibition of established 786-O renal cell carcinoma xenografts. It is filed as in vivo, athymic nude mice. The conditions noted are these: high sunitinib dose 50 mg/kg daily, alone or with B20-4.1. The procedure: as §1, §2, §3, §4
The subject of assay [3] is H1299 human non-small cell lung carcinoma (NSCLC) xenografts. Put plainly: Growth inhibition of established H1299 human NSCLC xenografts. In kind it is in vivo, athymic nude mice. Particulars: Day 19, longer term study, alone or with B20-4.1. The method, then: as §1, §2, §3, §4
The subject of assay [4] is Caki-2 human renal cell carcinoma xenografts. The experiment in a line: Growth inhibition of established Caki-2 renal cell carcinoma xenografts. It is filed as in vivo, SCID mice. The method, then: as §1, §2, §3, §4

Consider `CCN(CC)CCNC(=O)c1c(C)[nH]c(/C=C2\C(=O)Nc3ccc(F)cc32)c1C` [sunitinib, N-[2-(diethylamino)ethyl]-5-[(Z)-(5-fluoro-1,2-dihydro-2-oxo-3H-indol-3-ylidine)methyl]-2,4-dimethyl-1H-pyrrole-3-carboxamde], for which the “TGI (tumor growth inhibition)” value in assay [1] turned out to be 43%; in assay [2], 80%; in assay [3] (sunitinib 25 mg/kg daily) it was 32%; in assay [3] (sunitinib 50 mg/kg daily), 62%; in assay [4] (Day 29, high dose (50 mg/kg) sunitinib, alone or with B20-4.1), 62%. Besides, in assay [4] (low dose (25 mg/kg) sunitinib monotherapy), the “Day 29 mean tumor volumes (MTVs)” value turned out to be 352 mm^3.
